Data: patent US12338218B2, “Crystal form of benzimidazole-2-one compound, solvate thereof, crystal form of solvate thereof, and preparation method thereof” (MEDSHINE DISCOVERY INC., priority 2019, dated 2025)
pIC50: −log10 of the molar value.

Assays:
Recombinant human PDE4B = Recombinant human PDE4B (Homo sapiens (Human), UniProt Q07343); test: PDE4B enzyme inhibition, fluorescence polarization (Transcreener AMP2/GMP2); format: biochemical
Method: The biological assay was based on fluorescence polarization measurement of AMP/GMP expression, that is, tracing binding of AMP/GMP antibody to indicate the activity of the enzyme.
Buffer solution for the assay: 10 mM trihydroxymethyl aminomethane-hydrochloric acid buffer solution (Tris-HCl) (pH 7.5), 5 mM MgCl2, 0.01% polyoxyethylene lauryl ether (Brij 35), 1 mM dithiothreitol (DTT), and 1% DMSO.
Enzyme: Recombinant human PDE4B (Genebank Accession Number NM_002600; amino acid 305 terminal) was expressed with baculovirus in Sf9 insect cells using N-terminal GST tag. MW=78 kDa.
Enzyme substrate: 1 μM cAMP
Detection: Transcreener® AMP2/GMP2 antibody and AMP2/GMP2 AlexaFluor633 tracing.
• 1. Dissolving the recombinant human PDE4B enzyme and enzyme substrate (1 μM cAMP) in freshly prepared assay buffer, respectively; • 2. Transferring the above PDE4B enzyme buffer solution to reaction wells; • 3. Adding compound 1 dissolved with 100% DMSO to reaction wells with the PDE4B enzyme buffer solution via acoustic technology (echo 550 nanoliter range) and incubating at room temperature for 10 min; • 4. […] The range of fluorescence polarization determination was Ex/Em=620/688. […]
The fluorescence polarization signal was converted into nM based on AMP/GMP standard curve and % enzyme activity calculated by Excel software relative to the DMSO control. […]

[1] = test system: lipopolysaccharide (LPS)-induced TNFα production in human peripheral blood mononuclear cells; test: Inhibition of LPS-induced TNFα production in hPBMC (ELISA); format: cell-based
Method: Inhibitory activity of compound 1 on lipopolysaccharide (LPS)-induced TNFα production in human peripheral blood mononuclear cells.
PBMC cells were inoculated into a 96-well plate of cell culture grade at a density of 100,000 cells/100 μL/well. The cell culture medium was RPMI-1640 supplemented with 10% serum. The plate was incubated in a 37° C., 5% CO2 incubator for 2 hours. 16.8 μL/well of the assay compound was added to the cells and then the cells were incubated in a 37° C., 5% CO2 incubator for 60 minutes. 16.8 μL/well of LPS was then added to the cells and the cells were incubated in a 37° C., 5% CO2 incubator for 18 hours. The final DMSO concentration was 0.1%.
In the first step, compound 1 was diluted from a stock concentration to 1.5 mM with 100% DMSO. In the second step, the diluted compound was used as the first point and serially diluted 3-fold with 100% DMSO for 9 points. In the third step, the compound was diluted 125-fold with a serum-free medium, at which time the concentration of DMSO was 0.8%. Then 16.8 μL of the compound diluted with the medium was transferred to a 100 μL cell plate.
The compound was added, and then the cell plate was placed in a 37° C., 5% CO2 incubator and incubated for 1 hour.
In the first step, LPS was diluted with ultrapure water to a stock concentration of 1 mg/mL. […]

[2] = test system: PMA-induced ear edema in CD-1 mice; test: In vivo model of PMA-induced ear edema in CD-1 mice; details: for inhibition rate of ear edema / inhibition rate of ear weight gain: application BID, 10 hours after PMA induction
Method: 1 mL of acetone was added to completely dissolve 1 mg of PMA, and then 800 μL of mother liquor was pipetted and added to 2400 μL of acetone to prepare 0.25 mg/mL PMA.
CD-1 mice were sorted according to ear thickness and body weight. […] 10 μL of PMA with a concentration of 0.25 mg/mL was applied to the front and back sides of the right ear of each mouse.
The mice in the first group were normal mice, and these mice will not be treated in any way; the mice in the second group were given a vehicle; and the mice in the third group, the fourth group, and the fifth group were given compound 1 at a dose of 0.1 mg/ear, 0.3 mg/ear, and 1 mg/ear, respectively. Drugs were applied to the right ear of the mice 30 minutes before and 15 minutes after PMA induction, respectively.
Measurement and sampling: Ten hours after PMA induction, the mice were anesthetized and the thickness of the right ear was measured. After measuring the thickness of the right ear, the mouse was immediately euthanized, and the ear piece was collected and weighed.
The assay data was expressed as mean±standard error of mean (Mean±SEM), and the degree of ear swelling and ear weight were analyzed by one-way analysis of variance (One-way ANOVA), wherein p<0.05 was considered a significant difference.

Recombinant human PDE4B, sequence (Q07343 305-736 limits assumed): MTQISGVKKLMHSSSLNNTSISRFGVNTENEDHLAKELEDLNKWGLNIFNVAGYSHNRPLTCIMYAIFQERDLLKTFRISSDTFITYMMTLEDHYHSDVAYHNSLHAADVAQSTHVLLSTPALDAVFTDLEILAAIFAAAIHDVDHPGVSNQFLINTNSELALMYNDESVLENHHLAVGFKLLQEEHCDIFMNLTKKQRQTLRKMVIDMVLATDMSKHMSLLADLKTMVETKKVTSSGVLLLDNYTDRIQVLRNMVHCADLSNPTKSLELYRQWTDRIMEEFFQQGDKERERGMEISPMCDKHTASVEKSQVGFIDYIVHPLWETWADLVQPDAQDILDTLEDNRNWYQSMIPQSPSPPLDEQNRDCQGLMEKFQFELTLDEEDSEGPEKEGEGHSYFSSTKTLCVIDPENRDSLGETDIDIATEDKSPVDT

in vitro activity of inhibiting PDE4B (in words) (Recombinant human PDE4B): excellent in vitro activity | pIC50 (Recombinant human PDE4B; PDE4B, 1 μM cAMP substrate, average in triplicate): 7.58 | pIC50 ([1]; Homo sapiens, PBMC, TNFα production in hPBMC, LPS 18 hours, average in triplicate): 7.19
SMILES: CCOc1cc([C@@H](CS(C)(=O)=O)n2c(=O)[nH]c3cc(F)ccc32)ccc1OC [Compound 1]
in vitro activity of inhibiting TNFα production in hPBMC (in words) [1]: excellent in vitro activity | inhibition rate of ear edema ([2]; 0.1 mg/ear): 22% | inhibition rate of ear weight gain ([2]; 0.1 mg/ear): 39% | inhibition rate of ear edema ([2]; 0.3 mg/ear): 39% | inhibition rate of ear weight gain ([2]; 0.3 mg/ear): 46% | inhibition rate of ear edema ([2]; 1 mg/ear): 88% | inhibition rate of ear weight gain ([2]; 1 mg/ear): 85% | effect on the symptoms of PMA-induced ear edema (in words) ([2]; three dose groups of 0.1, 0.3 and 1 mg/ear): significant improvement effect
